Results: patent US20180371021A1, “PEPTIDOMIMETIC MACROCYCLES AND USES THEREOF” (Aileron Therapeutics, Inc., priority 2017, published 2018)
Bridge positions count the residues as written; N and C are the ends. Square brackets hold non-standard residues; d marks the D form. Peptide text beside a SMILES is read from it. Phe(4-COOH) = N[C@@H](Cc1ccc(C(=O)O)cc1)C(=O)O; R8 = C=CCCCCCC[C@@](C)(N)C(=O)O; Cba = N[C@@H](CC1CCC1)C(=O)O; S5 = C=CCCC[C@](C)(N)C(=O)O

How the values were obtained:
[1] = test system: MCF-7 breast cancer xenograft; assay: MCF-7 breast cancer xenograft study using SP315, SP249 and SP154; type: in vivo, mice
Protocol: Slow release 90 day 0.72 mg 17β-estradiol pellets were implanted subcutaneously (sc) on the nape of the neck one day prior to tumor cell implantation (Day −1). On Day 0, MCF-7 tumor cells were implanted sc in the flank of female nude (Cr1:NU-Foxn1nu) mice. On Day 18, the resultant sc tumors were measured using calipers to determine their length and width, and the mice were weighed. The tumor sizes were calculated using the formula (length×width^2)/2, and expressed as cubic millimeters (mm^3). Mice with tumors smaller than 85.3 mm^3 or larger than 417.4 mm^3 were excluded from the subsequent group formation. Thirteen groups of mice, 10 mice per group, were formed by randomization such that the group mean tumor sizes were essentially equivalent (mean of groups±standard deviation of groups=180.7±17.5 mm^3).
The peptide formulations were prepared once for the duration of the study. The vehicle was used as the vehicle control in the subsequent study.
Each group was assigned to a different treatment regimen. Group 1, as the vehicle negative control group, received the vehicle administered at 8 mL/kg body weight intravenously (I.V.) three times per week from Days 18-39. […] Group 4 received 6.7 mg/kg SP249 as an I.V. injection three times per week. […] Group 9 received 30 mg/kg SP252 as an I.V. injection three times per week.
During the dosing period, the mice were weighed and the tumors were measured 1-2 times per week. Tumor growth inhibition was compared with the vehicle group. Tumor growth inhibition (TGI) was calculated as
where x=day that effect of treatment is being assessed.

[2] = test system: SJSA-1 osteosarcoma xenograft; assay: SJSA-1 osteosarcoma xenograft model, AP1 and palbociclib; type: in vivo, mice; conditions: AP1 20 mg/kg qwkx4, palbociclib 75 mg/kg qdx22
Protocol: (§1) The group was not euthanized, and the mice were allowed to recover. […] Animals were monitored individually. […] Responders were followed for a longer period of time. When the endpoint was reached, the animals were euthanized. […] An aqueous phosphate-buffered saline solution or sodium lactate (50 mM, pH 4.0) solution was used as the vehicle.

[3] = test system: MCF-7.1 human breast carcinoma xenograft; assay: MCF-7.1 human breast carcinoma xenograft model, AP1 and palbociclib; type: in vivo, mice; conditions: AP1 20 mg/kg qwkx4, palbociclib 75 mg/kg qdx22
Protocol: as §1, with “Female athymic nude mice were provided with drinking water with 10 μg/mL with 17 beta estradiol supplementation 3 days prior to cell implantation and for the duration of the study. […] The mice were between 8-12 weeks of age at the beginning of the study. […] The” for “The”

A549 xenograft = A549 xenograft model, AP1 and palbociclib; type: in vivo, mice; conditions: AP1 20 mg/kg qwkx4, palbociclib 75 mg/kg qdx22
Source text: The arrows indicate spontaneous tumor shrinkage in vehicle controls. The arrows with * indicate poor growth of tumors late in the study.

[4] = 39 patients treated with nivolumab; 30 patients treated with pembrolizumab; cited from earlier work
[5] = d22, calculated using vehicle median volumes on d0 and d22
[6] = three consecutive measurements > 150% of d1 volume

CC[C@H](C)[C@H](NC(=O)[C@H](C)NC(=O)[C@H](C)NC(=O)[C@]1(C)CCCC=CCCCCCC[C@@](C)(NC(=O)[C@H](Cc2ccccc2)NC(=O)[C@@H](NC(=O)[C@H](CC(C)C)NC(C)=O)[C@@H](C)O)C(=O)N[C@@H](CCC(=O)O)C(=O)N[C@@H](Cc2ccc(C(=O)O)cc2)C(=O)N[C@@H](Cc2c[nH]c3ccccc23)C(=O)N[C@@H](C)C(=O)N[C@@H](CCC(N)=O)C(=O)N[C@@H](CC2CCC2)C(=O)N1)C(=O)N[C@H](C)C(N)=O [SP249] (Ac-LTF[R8]E[Phe(4-COOH)]WAQ[Cba][S5]AAI[dA]-NH2; staple 4-11)
mice died ([1]; […] three times per week): 4

CC(=O)N[C@@H](CC(C)C)C(=O)N[C@H](C(=O)N[C@@H](C)C(=O)N[C@]1(C)CCCCCCC=CCCC[C@@](C)(C(=O)N[C@@H](CO)C(=O)N[C@@H](C)C(=O)N[C@@H](C)C(N)=O)NC(=O)[C@H](CC2CCC2)NC(=O)[C@H](CCC(N)=O)NC(=O)[C@H](C)NC(=O)[C@H](Cc2c[nH]c3ccccc23)NC(=O)[C@H](Cc2ccc(O)cc2)NC(=O)[C@H](CCC(=O)O)NC1=O)[C@@H](C)O [SP252]
body weight loss or deaths ([1]; 30 mg/kg three times per week): No body weight loss or deaths | TGI ([1]; 30 mg/kg three times per week, day 32): 88%

CC(=O)c1c(C)c2cnc(Nc3ccc(N4CCNCC4)cn3)nc2n(C2CCCC2)c1=O [palbociclib, reference compound]
Median tumor volume (mm^3) D1 ([2]; D1 (start of dosing), SJSA-1 xenograft, nude mice): 126 mm^3 | Median tumor volume (mm^3) D22 ([2]; D22, SJSA-1 xenograft, nude mice): 1418 mm^3 | Median time to tumor volume > 1000 mm^3 ([2]; SJSA-1 xenograft): 18 days | Median time to tumor volume > 2000 mm^3 ([2]; SJSA-1 xenograft): 24 days | % TGI (±SEM) on d22 (end of dosing) [2, 5]: 51 (9) % | Animals with disease progression [2, 6]: 9/10 | Median tumor volume (mm^3) D1 ([3]; D1 (start of dosing), MCF-7.1 xenograft, nude mice): 108 mm^3 | Median tumor volume (mm^3) D22 ([3]; D22, MCF-7.1 xenograft, nude mice): 196 mm^3 | Median time to tumor volume > 500 mm^3 ([3]; MCF-7.1 xenograft): 37 days | Median time to tumor volume > 1000 mm^3 ([3]; MCF-7.1 xenograft): 48 days | % TGI (±SEM) on d22 (end of dosing) [3, 5]: 84 (4) % | Animals with disease progression [3, 6]: 8/8 | Median tumor volume (mm^3) D1 (A549 xenograft; D1 (start of dosing), A549 xenograft, nude mice): 126 mm^3 | Median tumor volume (mm^3) D22 (A549 xenograft; D22, A549 xenograft, nude mice): 288 mm^3 | % TGI (±SEM) on d22 (end of dosing) (A549 xenograft; [5]): 62 (7) % | Animals with disease progression (A549 xenograft; [6]): 9/10

nivolumab: PD-1/PD-L1 antagonist
PRs [4]: 2 | SDs [4]: 12 | complete responses [4]: 1 | shrinkages among SDs [4]: 2

pembrolizumab: PD-1/PD-L1 antagonist
PRs [4]: 3 | SDs [4]: 11 | complete responses [4]: 2 | shrinkages among SDs [4]: 3
